Results as given in US11352354B2, “Substituted penta-fused hexa-heterocyclic compounds, preparation method therefor, drug combination and use thereof” (Xiamen University, priority 2017, dated 2022).

Tested on: MDA-MB-231 cells
Assay: Vacuolation of MDA-MB-231 cells caused by inhibition of compounds on PIKfyve (microscopy)
Format: cell-based
Conditions: MDA-MB-231 cells
From the text: I. Determination of Vacuolation of MDA-MB-231 Cells Caused by Inhibition of Compounds on PIKfyve
When the activity of pikfyve kinase is inhibited, vacuoles will be produced in cytoplasm. By observing the number of vacuoles under a microscope, the ability of compounds to inhibit the activity of pikfyve kinase can be known.
1. Cell plating: cells in logarithmic growth phase were made into a single cell suspension, counted with a cell counter and diluted to a cell concentration of about 2×10^5/mL. Then, the cells were inoculated into a 12-well plate, and cultured in a 37° C., 5% CO2 incubator.
3. Vacuolation test: after 24 and 48 hours of culture, photos were taken under an […] to observe the degree of vacuolation.
(In the table, “+” represents the degree of vacuolation; more “+” indicates more obvious vacuolation; “−” represents no vacuolation)

Row | Structure (SMILES) | degree of vacuolation, 1 μM, 24 h | degree of vacuolation, 1 μM, 48 h | degree of vacuolation, 10 μM, 24 h | degree of vacuolation, 10 μM, 48 h
1 | Cc1ccc(NC(=O)c2cccc(C(F)(F)F)c2)cc1Nc1cc(-c2ccncc2)nc2[nH]ccc12 [I-a-10] | − | − | ++ | ++
2 | Cc1ccc(C(=O)Nc2cccc(C(F)(F)F)c2)cc1Nc1cc(-c2ccncc2)nc2[nH]ccc12 [I-a-21] | − | − | − | −
3 | Cc1ccc(C(=O)Nc2ccc(CN3CCN(C)CC3)c(C(F)(F)F)c2)cc1Nc1cc(-c2cccnc2)nc2[nH]ccc12 [I-a-24] | − | − | − | −
4 | CN1CCN(Cc2cc(NC(=O)c3cccc(Nc4cc(-c5cccnc5)nc5[nH]ccc45)c3)cc(C(F)(F)F)c2)CC1 [I-a-26] | − | − | − | −
5 | CN1CCN(Cc2cc(NC(=O)c3cccc(Nc4cc(-c5ccncc5)nc5[nH]ccc45)c3)cc(C(F)(F)F)c2)CC1 [I-a-27] | + | − | + | −
6 | O=C(Nc1cccc(C(F)(F)F)c1)c1cccc(Nc2cc(-c3cccnc3)nc3[nH]ccc23)c1 [I-a-30] | + | + | + | +
7 | Cc1ccc(C(=O)Nc2cc(C(F)(F)F)cc(C(F)(F)F)c2)cc1Nc1cc(-c2cccnc2)nc2[nH]ccc12 [I-a-31] | − | − | − | −
8 | COc1cccc(NC(=O)c2ccc(C)c(Nc3cc(-c4cccnc4)nc4[nH]ccc34)c2)c1 [I-a-32] | + | ++ | + | ++
9 | Cc1ccc(C(=O)Nc2cccc(OC(F)(F)F)c2)cc1Nc1cc(-c2cccnc2)nc2[nH]ccc12 [I-a-33] | + | ++ | + | ++
10 | Cc1cccc(NC(=O)c2ccc(C)c(Nc3cc(-c4cccnc4)nc4[nH]ccc34)c2)c1 [I-a-34] | + | ++ | + | ++
11 | Cc1ccc(C(=O)Nc2cccc(Cl)c2)cc1Nc1cc(-c2cccnc2)nc2[nH]ccc12 [I-a-35] | + | ++ | + | ++
12 | O=C(Nc1cccc(C(F)(F)F)c1)c1ccc(F)c(Nc2cc(-c3cccnc3)nc3[nH]ccc23)c1 [I-a-38] | + | + | ++ | ++
13 | Cc1ccc(NC(=S)Nc2cccc(C(F)(F)F)c2)cc1Nc1cc(-c2cccnc2)nc2[nH]ccc12 [I-a-40] | + | + | + | +
14 | Cc1cc(NC(=O)c2ccc(C)c(Nc3cc(-c4cccnc4)nc4[nH]ccc34)c2)n(C)n1 [I-a-45] | − | + | + | +
15 | Cc1ccc(C(=O)Nc2ccc(CN3CCN(C)CC3)c(C(F)(F)F)c2)cc1Nc1cc(-c2cccnc2)nc2c1ccn2C [I-b-5] | − | − | + | +
16 | Cc1ccc(C(=O)Nc2cccc(C(F)(F)F)c2)cc1Nc1nc(-c2ccccc2)nc2c1cnn2C [III-b-2] | − | − | − | −

Row | Structure (SMILES) | degree of vacuolation, 1 μM, 24 h | degree of vacuolation, 1 μM, 48 h | degree of vacuolation, 10 μM, 24 h | degree of vacuolation, 10 μM, 48 h
17 | Cc1ccc(C(=O)Nc2ccc(CN3CCN(C)CC3)c(C(F)(F)F)c2)cc1Nc1nc(-c2ccncc2)nc2[nH]cnc12 [IV-a-5] | + | − | + | −
18 | Cc1ccc(C(=O)Nc2cccc(OC(F)(F)F)c2)cc1Nc1nc(-c2ccncc2)nc2[nH]cnc12 [IV-a-7] | − | − | + | ++
19 | Cc1ccc(C(=O)Nc2ccc(CN3CCN(C)CC3)c(C(F)(F)F)c2)cc1Nc1nc(-c2cccnc2)nc2c1ncn2C [IV-b-9] |  | − |  | −
20 | Cc1ccc(C(=O)Nc2ccc(CN3CCN(C)CC3)c(C(F)(F)F)c2)cc1Nc1nc(-c2ccncc2)nc2c1ncn2C [IV-b-10] |  | − |  | −
21 | Cc1ccc(C(=O)Nc2cccc(OC(F)(F)F)c2)cc1Nc1nc(-c2cccnc2)nc2c1ncn2C [IV-b-11] | + | + |  | +
22 | O=C(Nc1cccc(C(F)(F)F)c1)c1cccc(Nc2nc(-c3cccnc3)nc3cc[nH]c23)c1 [V-a-1] | − | − | + | +
23 | Cc1ccc(NC(=O)c2cccc(C(F)(F)F)c2)cc1Nc1nc(-c2cccnc2)nc2cc[nH]c12 [V-a-3] | ++ | ++ | + | +
24 | Cc1ccc(NC(=O)c2cccc(C(F)(F)F)c2)cc1Nc1nc(-c2ccncc2)nc2cc[nH]c12 [V-a-4] | − | − | − | −
25 | Cc1cn(-c2cc(NC(=O)c3ccc(C)c(Nc4nc(-c5cccnc5)nc5cc[nH]c45)c3)cc(C(F)(F)F)c2)cn1 [V-a-7] | − | − | + | +
26 | Cc1cn(-c2cc(NC(=O)c3ccc(C)c(Nc4nc(-c5ccncc5)nc5cc[nH]c45)c3)cc(C(F)(F)F)c2)cn1 [V-a-8] | + | + | ++ | ++
27 | Cc1ccc(C(=O)Nc2ccc(CN3CCN(C)CC3)c(C(F)(F)F)c2)cc1Nc1nc(-c2ccncc2)nc2cc[nH]c12 [V-a-10] | ++ | ++ | − | −
28 | Cc1ccc(NC(=O)c2cccc(C(F)(F)F)c2)cc1Nc1nc(-c2ccncc2)nc2ccn(C)c12 [V-b-2] | − | − | ++ | ++
29 | Cc1ccc(C(=O)Nc2cccc(C(F)(F)F)c2)cc1Nc1nc(-c2cccnc2)nc2ccn(C)c12 [V-b-3] | + | + | ++ | ++
30 | Cc1ccc(C(=O)Nc2ccc(CN3CCN(C)CC3)c(C(F)(F)F)c2)cc1Nc1nc(-c2cccnc2)nc2ccn(C)c12 [V-b-7] | + | + | − | −
31 | COc1ccc(Br)cc1NC(=O)Nc1cccc(-c2nc(NCc3cccnc3)c3c(ccn3C)n2)c1 [V-b-29] | + | − | − | −
